Reference: US12209089B1, “Pyrimido[1′,6′: 1,5]pyrazolo[4,3-c] [2,7] naphthyridines as CK2 inhibitors” (KING FAISAL UNIVERSITY, priority 2024, dated 2025)

Tests used:
HCT116 (colon) = assay: In vitro cytotoxic activity (MTT) assay, HCT116; assay type: cell-based; conditions: Homo sapiens, HCT-116; HCT116 (colon) cells, 96 hours exposure; read-out: Cytotoxicity activity IC50 (50% inhibition of cell proliferation)
Protocol: (§1) Compounds 1-16 were screened for their in vitro cytotoxic activity utilizing a 3-(4,5-dimethyl-thiazol-2-yl)-2,5-diphenyltetrazolium bromide (MTT) assay against selected cancer human cell lines consisting of PC3 (prostate), HCT116 (colon), A375 (melanoma), H1299 (lung), MIAPaCa-2 (pancreas), HL60 (leukemia), MCF7 (breast), MDA-MB-231 (breast) (T. Mosmann, J. Immunol. Meth., 1983, 65, 55-63). The cells were cultured at 37° C. in RMPI1640 medium supplemented with 10% fetal bovine serum, 50 IU/mL penicillin, and 50 μg/mL streptomycin in a 5% CO2 incubator. All cells were sub-cultured 3 times/week by trypsinisation. Viable cells were seeded and allowed to adhere for 12 hours before a test drug was added in 96-well plates at an initial density of 1.0×10^5 cells/mL. Tumor cell lines were separately exposed to various concentrations of the tested compounds followed by incubation at a temperature of 37° C. during 96 hours inside a medium of fresh RMPI 1640. Cells were subsequently incubated at 37° C. using MTT at 0.5 mg/mL during 4 hours. After removal of supernatant, formazan crystals were dissolved in isopropanol and the optical density was measured at 570 nm. CX-4945 was used as a positive control.

MCF7 (breast) = assay: In vitro cytotoxic activity (MTT) assay, MCF7; assay type: cell-based; conditions: Homo sapiens; MCF7 (breast) cells, 96 hours exposure; read-out: Cytotoxicity activity IC50 (50% inhibition of cell proliferation)
Protocol: as §1

PC3 (prostate) = assay: In vitro cytotoxic activity (MTT) assay, PC3; assay type: cell-based; conditions: Homo sapiens, Prostate cell; PC3 (prostate) cells, 96 hours exposure; read-out: Cytotoxicity activity IC50 (50% inhibition of cell proliferation)
Protocol: as §1

H1299 (lung) = assay: In vitro cytotoxic activity (MTT) assay, H1299; assay type: cell-based; conditions: Homo sapiens, NCI-H1299; H1299 (lung) cells, 96 hours exposure; read-out: Cytotoxicity activity IC50 (50% inhibition of cell proliferation)
Protocol: as §1

MDA-MB-231 (breast) = assay: In vitro cytotoxic activity (MTT) assay, MDA-MB-231; assay type: cell-based; conditions: Homo sapiens; MDA-MB-231 (breast) cells, 96 hours exposure; read-out: Cytotoxicity activity IC50 (50% inhibition of cell proliferation)
Protocol: as §1

[1] = biological target: T1, recombinant human CK2 (holoenzyme) (Homo sapiens, UniProt P68400); assay: CK2 Kinase Assay (33P-ATP, filter plate); assay type: biochemical; conditions: recombinant human CK2, 10 min at 30° C., eight concentrations; read-out: protein kinase CK2 IC50
T1 construct: purchased Millipore
Protocol: CK2 Kinase Assay was conducted using the protocol as described in Pierre F. et al; J. Med. Chem. 2011, 54, 635-654. The tested compounds in aqueous solution were added at a volume of 10 μL to a reaction mixture comprising 10 μL of assay dilution buffer (ADB; 20 mM MOPS, pH 7.2, 25 mM B-glycerol phosphate, 5 mM EGTA, 1 mM sodium orthovanadate, and 1 mM dithiothreitol), 10 μL of substrate peptide (RRRDDDSDDD, dissolved in ADB at a concentration of 1 mM), 10 μL of recombinant human CK2 (RRBB-holoenzyme, 25 ng dissolved in ADB; Millipore). Reactions were initiated by the addition of 10 μL of ATP solution (90% 75 mMMgCl2, 75 μM ATP (final ATP concentration: […]) dissolved in ADB; 10% [y-33P]ATP (stock 1mCi/100 μL; 3000 Ci/mmol (Perkin-Elmer) and maintained for 10 min at 30° C. The reactions were quenched with 100 μL of 0.75% phosphoric acid and then transferred to and filtered through a phosphor cellulose filter plate (Millipore). After washing each well five times with 0.75% phosphoric acid, the plate was dried under vacuum for 5 min and, following the addition of 15 μL of scintillation fluid to each well, the residual radioactivity was measured using a Wallac […] counter. The IC50 values were derived from eight concentrations of test inhibitors.

MIAPaCa-2 (pancreas) = assay: In vitro cytotoxic activity (MTT) assay, MIAPaCa-2; assay type: cell-based; conditions: Homo sapiens, MIA PaCa-2; MIAPaCa-2 (pancreas) cells, 96 hours exposure; read-out: Cytotoxicity activity IC50 (50% inhibition of cell proliferation)
Protocol: as §1

HL60 (leukemia) = assay: In vitro cytotoxic activity (MTT) assay, HL60; assay type: cell-based; conditions: Homo sapiens, HL-60; HL60 (leukemia) cells, 96 hours exposure; read-out: Cytotoxicity activity IC50 (50% inhibition of cell proliferation)
Protocol: as §1

A375 (melanoma) = assay: In vitro cytotoxic activity (MTT) assay, A375; assay type: cell-based; conditions: Homo sapiens, A-375; A375 (melanoma) cells, 96 hours exposure; read-out: Cytotoxicity activity IC50 (50% inhibition of cell proliferation)
Protocol: as §1

T1 sequence (P68400 whole entry): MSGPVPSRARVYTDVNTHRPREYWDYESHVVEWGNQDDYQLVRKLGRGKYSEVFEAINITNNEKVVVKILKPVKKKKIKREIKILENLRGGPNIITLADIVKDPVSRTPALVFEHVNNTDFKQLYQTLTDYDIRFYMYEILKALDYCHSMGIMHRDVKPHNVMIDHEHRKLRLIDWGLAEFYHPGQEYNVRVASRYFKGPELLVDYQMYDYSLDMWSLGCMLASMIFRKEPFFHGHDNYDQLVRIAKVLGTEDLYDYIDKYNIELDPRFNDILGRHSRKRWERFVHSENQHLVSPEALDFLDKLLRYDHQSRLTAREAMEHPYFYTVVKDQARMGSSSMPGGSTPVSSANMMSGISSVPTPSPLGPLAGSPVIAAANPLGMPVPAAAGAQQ
T1 sequence (P67870 whole entry partner): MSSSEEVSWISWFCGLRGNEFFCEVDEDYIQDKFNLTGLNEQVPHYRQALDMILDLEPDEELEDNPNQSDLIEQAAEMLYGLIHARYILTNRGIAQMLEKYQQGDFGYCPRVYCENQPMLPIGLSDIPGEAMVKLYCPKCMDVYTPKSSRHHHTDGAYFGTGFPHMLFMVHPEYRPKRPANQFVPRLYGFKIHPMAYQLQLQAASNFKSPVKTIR

Clc1cccc(Nc2nc3c(nn4cnccc34)c3ccncc23)c1 [Compound 1, N-(3-chlorophenyl)pyrimido[1′,6′: 1,5]pyrazolo[4,3-c][2,7]naphthyridin-5-amine]
IC50 (HCT116 (colon)): 1.2 µM | IC50 (MCF7 (breast)): 5.3 µM | IC50 (PC3 (prostate)): 1.4 µM | IC50 (H1299 (lung)): 2.3 µM | IC50 (MDA-MB-231 (breast)): 4.5 µM | IC50 [1]: 0.03 µM | IC50 (MIAPaCa-2 (pancreas)): 1.1 µM | IC50 (HL60 (leukemia)): 4 µM | IC50 (A375 (melanoma)): 3.6 µM
